Assay results published in patent US7642277B2, “Non-nucleoside reverse transcriptase inhibitors” (Boehringer Ingelheim International GmbH, priority 2002, dated 2010).

Key:
[1] = target: T1, HIV-1 RT resistant mutant K103N/Y181C (Human immunodeficiency virus type 1 group M subtype B, UniProt P04585, K690N/Y768C); assay: Reverse transcriptase (RT) enzymatic assay (IC50), PicoGreen fluorescence, resistant mutant; type: biochemical
T1 construct: The reverse transcriptase (RT) enzyme assay has been adapted to a 96-well microtiter plate format
Procedure: (§1) Reverse Transcriptase (RT) Assays Enzymatic Assay (IC50)
The enzymatic assay employed is described as follows: The reverse transcriptase (RT) enzyme assay has been adapted to a 96-well microtiter plate format and uses PicoGreen™ as a fluorescent intercalator. More explicitly, the HIV-1 RT enzyme was thawed and appropriately diluted into Tris/HCl 50 mM pH 7.8 containing NaCl 60 mM, MgCl2∘6H2O 2 mM, DTT 6 mM, GSH 2 mM and 0.02% w/v Chaps to give ≈10 nM enzyme. To 10 μL of this enzyme solution was added 10 μL of inhibitor solution (40 μM to […] inhibitor in the same assay buffer as above containing 4% v/v DMSO). The plate was pre-incubated for 15 minutes at room temperature before proceeding to the next step. In this pre-incubation step, the highest and lowest inhibitor concentrations were 20 μM and 1.016 nM respectively and the concentration of DMSO was 2% v/v. Then the enzymatic reaction was initiated by addition of 20 μL of substrate solution. The final reaction mixture contained Tris/HCl 50 mM pH 7.8, NaCl 60 mM, MgCl2∘6H2O 2 mM, DTT 6 mM, GSH 2 mM, CHAPS 0.02% w/v, DMSO 1% v/v, poly rC 45 nM, dG15 4.5 nM, dGTP 3.6 μM, and ≈2.5 nM enzyme. In this incubation step, the highest and lowest inhibitor concentrations were 10 μM and 0.508 nM respectively. After addition of the substrate cocktail, the plate was covered with a plastic seal and incubated for 50 minutes at 37° C. in a dry incubator. The reaction was then quenched by addition of 5 μL of EDTA 0.5 M. The plate was shaken for 30 seconds at medium speed and incubated for 5 minutes at room temperature. Then 160 μL of PicoGreen™ 1:400 dilution from commercial stock (diluted in Tris 20 mM pH 7.5 with EDTA 1 mM) was added and the plate was shaken for 30 seconds and incubated for 10 minutes at room temperature. The plate was then analyzed using a POLARstar Galaxy fluorimeter (BMG Labtechnologies) with λex and λem of 485 nm and 520 nm respectively. […] Each row contained at its extremities a blank and a control well.
(§2) Table legend: A=>100; B=100-50; C=<50; NT=not tested

[2] = target: T2, HIV-1 RT enzyme (wild type) (Human immunodeficiency virus type 1 group M subtype B, UniProt P04585); assay: Reverse transcriptase (RT) enzymatic assay (IC50), PicoGreen fluorescence, wild type; type: biochemical; conditions: RT enzymatic assay, wild type; read-out: IC50 WT
T2 construct: The reverse transcriptase (RT) enzyme assay has been adapted to a 96-well microtiter plate format
Procedure: as §1
The enzymatic assay employed is described as follows: The reverse transcriptase (RT) enzyme assay has been adapted to a 96-well microtiter plate format and uses PicoGreen™ as a fluorescent intercalator. More explicitly, the HIV-1 RT enzyme was thawed and appropriately diluted into Tris/HCl 50 mM pH 7.8 containing NaCl 60 mM, MgCl2∘6H2O 2 mM, DTT 6 mM, GSH 2 mM and 0.02% w/v Chaps to give ≈10 nM enzyme. […] The plate was pre-incubated for 15 minutes at room temperature before proceeding to the next step. […] Then the enzymatic reaction was initiated by addition of 20 μL of substrate solution. […] After addition of the substrate cocktail, the plate was covered with a plastic seal and incubated for 50 minutes at 37° C. in a dry incubator. The reaction was then quenched by addition of 5 μL of EDTA 0.5 M. The plate was shaken for 30 seconds at medium speed and incubated for 5 minutes at room temperature. Then 160 μL of PicoGreen™ 1:400 dilution from commercial stock (diluted in Tris 20 mM pH 7.5 with EDTA 1 mM) was added and the plate was shaken for 30 seconds and incubated for 10 minutes at room temperature. […] Each row contained at its extremities a blank and a control well.
as §2

[3] = tested on: HIV-1 (wild type) in C8166 LTRluc cells; assay: C8166 HIV-1 luciferase assay (EC50), wild type; type: cell-based; conditions: Human immunodeficiency virus 1, C8166 HIV-1 luciferase assay (no *)
From the text: C8166 HIV-1 Luciferase Assay (EC50)
Plasmid: pGL3 Basic LTR/TAR #12
Plasmid is the pGL3 Basic Vector (a promoterless luciferase expression vector from Promega catalogue #E1751) with the addition of HIV-1 H×B2 LTR sequence from nucleotide −138 to +80 (Sca1-HindIII) upstream of the luciferase gene and the gene for blasticidine resistance cloned in.
C8166 cells are a human T-lymphotrophic virus type 1 immortalized but nonexpressing line of cord blood lymphocytes and are highly permissive to HIV-1 infection. The reporter cells were made by electroporating C8166 cells with pGL3 Basic LTR/TAR and then selecting positive clones with blasticidine. The clone C8166-LTRluc #A8-F5-G7 was selected by 3 consecutive rounds of limiting dilution under blasticidine selection.
Media: Complete media consisting of: RPMI 1640+10% FBS+10^−5 M
β-mercaptoethanol+10 μg/ml gentamycin. Cultures are maintained in complete media with 5 μg/ml blasticidine, however, selection is removed for the assay.
Luciferase Assay Protocol
Serial dilutions of HIV-1 inhibitors compounds are prepared in complete media from 10 mM DMSO stock solutions. Eleven serial dilutions of 2.5× are made at 8× desired final concentration in a 1 ml deep well titer plate (96 wells). The 12th well contains complete media with no inhibitor and serves as the positive control. All samples contain the same concentration of DMSO (≦0.1% DMSO). A 25 μl aliquot of inhibitor is added, to triplicate wells, of a 96 well tissue culture treated clear view black microtiter plate (Corning Costar catalogue # 3904). The last row is reserved for uninfected C8166 LTRluc cells to serve as the background blank control and the first row is media alone.
Count C8166 LTRluc cells and place in a minimal volume of complete RPMI 1640 in a tissue culture flask (ex. 30×10^6 cells in 10 ml media/25 cm^2 flask). Infect cells with HIV-1 at a moi of 0.005. Incubate cells for 1.5 hours at 37° C. on a rotating rack in a 5% CO2 incubator. Resuspend cells in complete RPMI to give a final concentration of 25,000-cells/175 μl. Add 175 μl of cell mix to wells of 96 well microtiter plate containing 25 μl 8× inhibitors. Add 25,000 uninfected C8166-LTRluc cells/well in 200 μl complete RPMI to last row for background control. Incubate cells at 37° C. in 5% CO2 incubator for 3 days.
Add 50 μl Steady Glo (luciferase substrate T1/2=5 hours Promega catalogue # E2520) to each well of the 96 well plate. Determine the relative light units (RLU) of luciferase using the BMG LUMlstar Galaxy luminometer. Plates are read from the bottom for 2 seconds per well with a gain of 240.
The level of inhibition (% inhibition) of each well containing inhibitor was calculated with the following equation: […]
The calculated % inhibition values were then used to determine EC50, slope factor (n) and maximum inhibition (Imax) by the non-linear regression routine NLIN procedure of SAS using the following equation: […]
The results are listed in Table 9 as IC50(nM) and EC50 (nM).
as §2

Row | Structure (SMILES) | IC50 [1] | IC50 [2] | EC50 [3]
1 | O=C(CSc1nnnn1-c1ccccc1)Nc1ccccc1[N+](=O)[O-] [Entry 108] | > 100 nM | > 100 nM | –
2 | CCc1ccccc1-n1nnnc1SCC(=O)Nc1ccccc1[N+](=O)[O-] [Entry 110] | > 100 nM | > 100 nM | –
3 | CC(C)c1ccccc1-n1nnnc1SCC(=O)Nc1ccccc1[N+](=O)[O-] [Entry 112] | > 100 nM | > 100 nM | –
4 | O=C(CSc1nnnn1-c1cccc(Cl)c1)Nc1ccccc1[N+](=O)[O-] [Entry 119] | > 100 nM | > 100 nM | –
5 | O=C(CSc1nnnn1-c1ccc(Cl)cc1Cl)Nc1ccccc1[N+](=O)[O-] [Entry 126] | > 100 nM | > 100 nM | –
6 | O=C(CSc1nnnn1-c1ccc(Cl)c(C(F)(F)F)c1)Nc1ccccc1[N+](=O)[O-] [Entry 137] | > 100 nM | > 100 nM | –
7 | O=C(CSc1nnnn1-c1cccc2ccccc12)Nc1ccccc1 [Entry 201] | > 100 nM | > 100 nM | –
8 | Cc1ccccc1NC(=O)CSc1nnnn1-c1cccc2ccccc12 [Entry 202] | > 100 nM | > 100 nM | –
9 | COc1ccc(NC(=O)CSc2nnnn2-c2cccc3ccccc23)c(Cl)c1 [Entry 237] | > 100 nM | < 50 nM | < 50 nM
10 | Cc1ccc(C)c(NC(=O)CSc2nnnn2-c2cccc3ccccc23)c1 [Entry 240] | > 100 nM | > 100 nM | –
11 | OC(COc1ccccc1Cl)CSc1nnnn1-c1cccc2ccccc12 (centres unmarked) [Entry 325] | > 100 nM | > 100 nM | –
12 | O=C(Nc1ccccc1[N+](=O)[O-])C1CC1c1nnnn1-c1cccc2ccccc12 (centres unmarked) [Entry 343] | – | > 100 nM | –
13 | O=C(CSc1nnnn1-c1cccc2ccccc12)NCc1ccccc1[N+](=O)[O-] [Entry 344] | – | > 100 nM | –
14 | O=C(CSc1nnnn1-c1cccc2ccccc12)Cc1ccccc1[N+](=O)[O-] [Entry 345] | – | > 100 nM | –
15 | O=C1C(Sc2nnnn2-c2cccc3ccccc23)CCN1c1ccccc1Cl (centres unmarked) [Entry 346] | – | > 100 nM | –
16 | O=C(CCC1=C(c2cccc3ccccc23)CCC1)Nc1ccccc1Cl [Entry 405] | – | > 100 nM | –

Row | Structure (SMILES) | IC50 [1] | IC50 [2] | EC50 [3]
17 | O=C(CSc1ccccc1-c1cccc2ccccc12)Nc1ccccc1Cl [Entry 406, 2-{{2-(1-Naphthalenyl)phenyl}thio}-N-(2-chorophenyl)acetamide] | > 100 nM | < 50 nM | > 100 nM
18 | O=C(C[S+]([O-])c1ccccc1-c1cccc2ccccc12)Nc1ccccc1Cl (centres unmarked) [Entry 407] | – | > 100 nM | –
19 | O=C(CS(=O)(=O)c1ccccc1-c1cccc2ccccc12)Nc1ccccc1Cl [Entry 408] | – | > 100 nM | –
20 | O=C(CCc1ccccc1-c1cccc2ccccc12)Nc1ccccc1Cl [Entry 410] | – | > 100 nM | –
21 | O=C(CSc1nc2ccccc2n1-c1cccc2ccccc12)Nc1ccccc1[N+](=O)[O-] [Entry 411] | > 100 nM | > 100 nM | –
22 | O=C(CSc1nc2ccccc2n1-c1ccccc1)Nc1ccccc1[N+](=O)[O-] [Entry 412] | – | > 100 nM | –
23 | O=C(COc1ccccc1-c1ccccc1)Nc1ccccc1[N+](=O)[O-] [Entry 413] | > 100 nM | > 100 nM | –
24 | Cc1ccccc1NC(=O)CSc1nccn1-c1cccc2ccccc12 [Entry 414] | – | > 100 nM | –
25 | COc1ccccc1NC(=O)CSc1nccn1-c1cccc2ccccc12 [Entry 415] | – | > 100 nM | –
26 | COC(=O)c1ccc(NC(=O)CSc2ccccc2-c2ccc(C)cc2Cl)c(Cl)c1 [Entry 418] | > 100 nM | < 50 nM | 50 to 100 nM
27 | Cc1ccc(-c2ccccc2SCC(=O)Nc2ccc(C(=O)O)cc2Cl)c(Cl)c1 [Entry 419] | > 100 nM | < 50 nM | 50 to 100 nM
28 | Cc1cc(C)c(-n2nnnc2SCC(=O)c2ccc3c(c2)OCO3)c(C)c1 [Entry 423] | – | > 100 nM | –
29 | O=C(CSc1ccccc1Br)Nc1ccccc1Cl [Entry 426] | – | > 100 nM | –
30 | Cc1ccc(NC(=O)CSc2nnnn2-c2ccc(C)cc2Cl)c(Cl)c1 [Entry 502] | > 100 nM | < 50 nM | < 50 nM
31 | COC(=O)c1ccc(NC(=O)CSc2nnnn2-c2ccc(C)cc2Cl)c([N+](=O)[O-])c1 [Entry 506] | > 100 nM | < 50 nM | –
32 | Cc1ccc(-n2nnnc2SCC(=O)Nc2ccccc2Cl)c(Br)c1 [Entry 701] | > 100 nM | < 50 nM | –
